Measured values as given in patent publication US20220241263A1, “PD-1 AXIS BINDING ANTAGONIST TO TREAT CANCER WITH GENETIC MUTATIONS IN SPECIFIC GENES” (Ares Trading S.A., priority 2019, published 2022).
Read-outs that look alike come from different tables or passages of the source.

Key:
[1] = system: patients with advanced RCC (aRCC); assay: Phase 3 clinical trial of avelumab in combination with axitinib versus sunitinib (NCT02684006); format: in vivo, human
Description: Patients will be stratified according to ECOG performance status (0 versus 1) and LDH (>1.5 ULN vs. ≤1.5 ULN). In arm A (avelumab in combination with axitinib), avelumab will be given as a 1 hour intravenous infusion (IV) every 2 weeks in a 6-week cycle. Axitinib will be given orally (PO) twice daily (BID), with or without food, on a continuous dosing schedule.
Axitinib treatment may be adjusted by dosing interruption with or without dose reduction. Intrapatient axitinib dose escalation may occur if the intrapatient escalation criteria are met.
Study Treatment: Axitinib will be given orally twice daily PO on a continuous daily dosing schedule. Avelumab will be given as a 1 hour intravenous infusion every 2 weeks in a 6-week cycle.
Tumor Assessments: Anti-tumor activity will be assessed by radiological tumor assessments and will be based on RECIST guidelines version 1.1 for primary and secondary endpoints and on immune-related RECIST (irRECIST) guidelines for exploratory endpoints. Tumor assessments will be performed every 6 weeks (Q6W) up to 1 year from first dose therapy; thereafter, tumor assessments will be performed every 2 cycles. […]

[2] = system: patients with advanced renal cell carcinoma; assay: CD8 immunohistochemistry study: PFS by number of CD8+ cells at the invasive margin in the phase 3 study; format: in vivo, human
Description: CD8 expression was assessed by immunohistochemistry using clone C8/144B and reported in terms of the number of CD8+ cells in relation to the total number of […] or at the invasive margin, with the median value as the cut point.

[3] = system: patients with advanced renal cell carcinoma
Description: Tumor samples were collected from patients in Example 2 and were subject to whole exome sequencing to identify genetic mutations. Software tools BWA and a combination of MuTect, Vardict, Picard, and other vendor tools were used.
The Cox proportional hazards (PH) regression model was used to assess the dependence of progression-free survival (PFS) on mutational status of each gene. In addition, multivariate analysis was also carried out adjusting for age, sex and tumor mutation burden. […] Genes were filtered based on the following criteria: • A. Mutated at 5% or more in the B9991003 cohort • B. Interaction term P-value<0.05 in both model (1) and model (2), testing for treatment specific differences of the mutations on survival outcome. • C.

[4] = system: patients with advanced renal cell carcinoma; remark: listed apart in the source
Description: Transcript levels were quantitated by the Personalis ACE Cancer Transciptome Analysis pipeline which uses STAR version 2.4.2a-p1 to align reads to the NCBI hs37d5 annotation 105 reference genome and produces Transcripts Per Million (TPM) values for each gene. TPM values were log2 transformed for further analysis.
Weighted Gene Co-Expression Network Analysis (WGCNA) was used to find co-expressed modules in the 720 baseline transcriptomic samples. […] The soft power of 6 was chosen based on goodness of fit to a scale-free network. A signed WGCNA network was constructed in R^37 with mergeCutHeight set to 0.25 and reassignThreshold set to 0. After removing non-coding genes and modules with size <10, 25 modules were identified. Gene signature scores were computed from the average expression of genes in a module. Univariate Cox Proportional Hazards (Cox PH) model was used to assess the dependence of PFS on each gene signature, which was categorized into high vs low groups according to median signature score. Multivariate analysis was also carried out adjusting for age and sex. Modules were annotated through identifying top enriched gene sets via hypergeometric tests using public gene set collections including the MSigDB Hallmark, GO Biological Process and LM22.
To assess the robustness of identified gene modules, next was carried out a consensus WGCNA analysis. […] The soft power of 6 was chosen based on goodness of fit to a scale-free network. 720 baseline data were randomly subsampled down to 80% of samples for 1,000 times. With each subsampled dataset, we constructed a co-expression network using the WGCNA procedure as described above. An adjacency matrix was constructed by counting the frequencies two genes were clustered into the same network module. A consensus network was then constructed using the new adjacency matrix via the standard WGCNA approach. Edges were then filtered by adjacency measure of 0.8. Modules with size <10 were removed. Consensus WGCNA identified 23 modules. Hypergeometric tests were then carried out to annotate modules as described above.
To refine the 306-gene immune response module, we selected genes annotated for immune-related functionality and had univariate Cox PH p-value <0.01 in the combination arm.

[5] = in vivo; cited from earlier work
[6] = patients with CDL163L1 mutation
[7] = patients with CDL163L1 wild type
[8] = patients with LOC728763 mutation
[9] = patients with LOC728763 wild type
[10] = patients with SPATA31C2 mutation
[11] = patients with SPATA31C2 wild type

CCN(CC)CCNC(=O)c1c(C)[nH]c(/C=C2\C(=O)Nc3ccc(F)cc32)c1C [sunitinib]
patients had died ([1]; PD-L1-positive tumors, median follow-up for overall survival 11.6 and 10.7 months): 44 patients | objective response rate ([1]; patients with PD-L1-positive tumors): 25.5% | median PFS ([2]; high numbers of CD8+ cells at the invasive margin): 7.1 months | median PFS ([2]; low numbers of CD8+ cells): 11.1 months | HR for PFS, high vs low numbers of CD8+ cells at the invasive margin ([2]; within treatment arm): 1.42 | Rate of PFS at 15 months ([3]; patients with ABCA1 mutation): 25% | Rate of PFS at 15 months ([3]; patients with ABCA1 wild type): 25% | Rate of PFS at 20 months ([3]; patients with ABCA1 wild type): 25% | Rate of PFS at 15 months ([3]; patients with ARVCF mutation): 43% | Rate of PFS at 20 months ([3]; patients with ARVCF mutation): 39% | Rate of PFS at 15 months ([3]; patients with ARVCF wild type): 22% | Rate of PFS at 20 months ([3]; patients with ARVCF wild type): 22% | Rate of PFS at 15 months [3, 6]: 15% | Rate of PFS at 20 months [3, 6]: 15% | Rate of PFS at 15 months [3, 7]: 25% | Rate of PFS at 20 months [3, 7]: 25% | Rate of PFS at 15 months ([3]; patients with DNMT1 mutation): 0% | Rate of PFS at 20 months ([3]; patients with DNMT1 mutation): 0% | Rate of PFS at 15 months ([3]; patients with DNMT1 wild type): 25% | Rate of PFS at 20 months ([3]; patients with DNMT1 wild type): 25% | Rate of PFS at 15 months ([3]; patients with FOXO1 mutation): 10% | Rate of PFS at 20 months ([3]; patients with FOXO1 mutation): 10% | Rate of PFS at 15 months ([3]; patients with FOXO1 wild type): 25% | Rate of PFS at 20 months ([3]; patients with FOXO1 wild type): 25% | Rate of PFS at 15 months ([3]; patients with IL16 mutation): 25% | Rate of PFS at 20 months ([3]; patients with IL16 mutation): 25% | Rate of PFS at 15 months ([3]; patients with IL16 wild type): 23% | Rate of PFS at 20 months ([3]; patients with IL16 wild type): 23% | Rate of PFS at 15 months [3, 8]: 25% | Rate of PFS at 20 months [3, 8]: 25% | Rate of PFS at 15 months [3, 9]: 23% | Rate of PFS at 20 months [3, 9]: 23% | Rate of PFS at 15 months ([3]; patients with MCR1 mutation): 30% | Rate of PFS at 15 months ([3]; patients with MCR1 wild type): 30% | Rate of PFS at 20 months ([3]; patients with MCR1 wild type): 30% | Rate of PFS at 15 months ([3]; patients with MYH7B mutation): 10% | Rate of PFS at 15 months ([3]; patients with MYH7B wild type): 25% | Rate of PFS at 20 months ([3]; patients with MYH7B wild type): 25% | Rate of PFS at 15 months ([3]; patients with PTEN mutation): 20% | Rate of PFS at 15 months ([3]; patients with PTEN wild type): 25% | Rate of PFS at 20 months ([3]; patients with PTEN wild type): 25% | Rate of PFS at 15 months [3, 10]: 25% | Rate of PFS at 20 months [3, 10]: 25% | Rate of PFS at 15 months [3, 11]: 23% | Rate of PFS at 20 months [3, 11]: 23% | Rate of PFS at 15 months ([3]; patients with STAB2 mutation): 30% | Rate of PFS at 20 months ([3]; patients with STAB2 mutation): 30% | Rate of PFS at 15 months ([3]; patients with STAB2 wild type): 25% | Rate of PFS at 20 months ([3]; patients with STAB2 wild type): 25% | median PFS ([4]; greater than median expression of JAVELIN Renal 101 Immuno Signature): 8.3 months | median PFS ([4]; less than median expression of JAVELIN Renal 101 Immuno Signature): 9.0 months | HR for PFS by tumor mutational burden (TMB) ([4]; within treatment arm): 0.79 | HR for PFS, high expression of IMmotion 150 angiogenesis signature ([4]; within treatment arm): 0.64 | HR for PFS, high vs low JAVELIN Renal 101 Angiogenesis Signature ([4]; within treatment arm): 0.56 | HR for PFS, high vs low JAVELIN Renal 101 Immuno Signature ([4]; within treatment arm): 0.98

avelumab: an anti-PD-L1 IgG1 monoclonal antibody
half-life [5]: 72 to 120 h
